The source of these data is patent US4897503A, “1,1,2-triaryl-1-alkene derivatives” (Taiho Pharmaceutical, priority 1986, dated 1990).

Like-named read-outs stand apart in the source and are kept apart here. Where only a bound is given, the exact number is not on record here.

The test system of data set [1] is experimental hormone-dependent tumor cells. The following applies: vs tamoxifen; cited from earlier work.
For data set [2] the following is noted: vs tamoxifen; cited from earlier work.
Data set [3] has as its system mammary cancer induced by 7,12-dimethylbenzanthracene (DMBA). Kind of data set: Effect on DMBA-induced mammary cancer: inhibition of tumor growth. The data set is classed as in vivo, rat (Sprague-Dawley, female). The following applies: 6 times a week for 3 weeks, 15 animals. As to the method:
(§1) The experiments were performed in 7-week-old female Sprague-Dawley rats bearing mammary cancer which had been induced by oral administration of 7,12-dimethylbenzanthracene (DMBA) according to the method described in European Journal of Cancer and Clinical Oncology 11, 571 (1975) and Cancer Research 26, 2169 (1966). The inhibitory effect of each test compound on this cancer was investigated.
(§2) Each test compound was suspended in an aqueous solution containing 0.5% of carboxymethylcellulose and 0.5% of Tween 80 and the suspension was orally administered by gastric gavage 6 times a week for 3 consecutive weeks. Once a week and on the 21st day, the number of induced tumors was counted and the surface area of tumors was measured. The percent increase in surface area relative to the surface area on the first day of administration was calculated and the result was compared with the result in the control group. The inhibitory effects on the appearance of new tumor are shown in Table 7 and the inhibitory effects on the enlargement of the tumor are shown in Table 8. The inhibition of appearance of new tumor (%) was calculated according to the formula: 100-(N/M)×100 where N is the number of newly appeared tumors in test group and M is the number of newly appeared tumors in control group.

The subject of a further data set is uterus. Briefly: Anti-uterotrophic effect (inhibition of uterine weight gain in immature rats). It is filed as in vivo, rat (Sprague-Dawley, female. The following applies: Rattus norvegicus, 504 h, read-out: ED50 (50% inhibition of uterine weight gain). From the text: The antiuterotophic activity of each test compound was studied using immature 4-week-old female Sprague-Dawley rats, according to the method described in Methods in Hormone Research, vol. 2, Academic Press p. 707 (1962).
Each test compound was suspended in a vehicle solution (i.e., an aqueous solution containing 0.5% of carboxymethylcellulose and 0.5% of Tween 80) and the suspension was orally administered using a stomach tube 6 times a week for 3 consecutive weeks at various doses. The animals were autopsied one day after the final administration and the uterus was weighed.
The percent inhibition of uterine weight gain was calculated by the formula
Percent inhibition=(A-C)×100/(A-B)
where A is the mean value of the uterine weight of the control which received the vehicle solution, B is that of the ovariectomized control (i.e., animals ovariectomized at the age of four weeks and thereafter treated with the vehicle solution for 3 weeks) and C is that of the animals which received each dose of each test compound. Then, the dose of each test compound causing a 50% inhibition (ED50) was calculated from the dose-response curve.

Data set [4] has as its system mammary cancer induced by 7,12-dimethylbenzanthracene (DMBA). Kind of data set: Effect on DMBA-induced mammary cancer: inhibition of appearance of new tumor. The data set is classed as in vivo, rat (Sprague-Dawley, female). The note with it: for Inhibition of appearance of new tumor: 6 times a week for 3 weeks, 15 animals. How it is done:
as §1, §2

Data set [5] in a line: Acute toxicity test (oral and intraperitoneal, Up-and-Down method). Set-up: species or system mouse (ddY strain). The note with it: mouse, in vivo, 6-week old male ddY mice, 3 weeks observation. How it is done: The acute oral and intraperitoneal toxicity of these compounds were investigated in 6-week old male ddY strain mice. In the oral toxicity study, each test compound was suspended or dissolved in an aqueous solution containing 0.5% of carboxymethylcellulose and 0.5% of Tween 80 and was administered at a dose of 4 ml/100 g. In the intraperitoneal toxicity study, each test compound was suspended or dissolved in physiological saline containing 0.5% of Tween 80 and was administered at a dose of 2 ml/100 g.

Where [6] appears, read: ip, intraperitoneal, read-out: LD50 intraperitoneal.

For `CC/C(=C(\c1ccc(O)cc1)c1ccc(OCCN(C)C)cc1)c1ccccc1` [4-hydroxytamoxifen], the “antitumor activity in vitro, in words” value in data set [1] is listed as “more potent antitumor activity than tamoxifen”. Also, the “effectiveness in vivo, in words” value in data set [2] is “inferior in effectiveness to tamoxifen”.
With `CC/C(=C(/c1ccc(OCCN(C)C)cc1)c1ccc(OP(=O)(O)O)cc1)c1ccccc1` [Compound 1, (E)-4-[1-[4-[2-(Dimethylamino)ethoxy]phenyl]-2-phenyl-1-butenyl]-phenyl phosphate], the “Inhibition of tumor growth (on day 21)” value in data set [3] (0.1 mg/kg/day p.o.) is recorded as 26.5%; in data set [3] (0.3 mg/kg/day p.o.), 42.3%. Moreover, the ED50 with uterus (po) is 0.076 mg/kg. The “Inhibition of appearance of new tumor” value in data set [4] (0.1 mg/kg/day p.o.) was 56.7%; in data set [4] (0.3 mg/kg/day p.o.), 54.7%. Further, the LD50 at 504 h was 223 mg/kg in data set [5] (setting [6]) and greater than 2000 mg/kg in data set [5] (oral, read-out: LD50 oral).
Consider `CCC(=C(c1ccc(OCCN(C)C)cc1)c1ccc(OP(=O)(O)O)cc1)c1ccc(C(C)C)cc1` [Compound 5], for which the “Inhibition of tumor growth (on day 21)” value worked out at 26.5% in data set [3] (0.1 mg/kg/day p.o.) and 50.2% in data set [3] (0.3 mg/kg/day p.o.). Besides, the ED50 with uterus (po) was 0.097 mg/kg. The “Inhibition of appearance of new tumor” value is given as 46.7% in data set [4] (0.1 mg/kg/day p.o.) and 48.5% in data set [4] (0.3 mg/kg/day p.o.). Besides, the LD50 at 504 h was 354 mg/kg in data set [5] (setting [6]) and greater than 2000 mg/kg in data set [5] (oral, read-out: LD50 oral).
For the molecule `CCOc1ccc(/C(CC)=C(/c2ccc(OCCN(C)C)cc2)c2ccc(OP(=O)(O)O)cc2)cc1` [Compound 7], in the data set on uterus (po), the ED50 was 0.026 mg/kg. In addition, the LD50 at 504 h in data set [5] (setting [6]) is 223 mg/kg; in data set [5] (oral, read-out: LD50 oral) it was greater than 2000 mg/kg.
On to `CC/C(=C(\c1ccccc1)c1ccc(OCCN(C)C)cc1)c1ccccc1` [Tamoxifen, reference compound], for which the “Inhibition of tumor growth (on day 21)” value in data set [3] (0.1 mg/kg/day p.o.) is recorded as 4.7%; in data set [3] (0.3 mg/kg/day p.o.) it was 39.0%. For the same molecule, the ED50 with uterus (oral, 6 times a week for 3 weeks, immature female SD rats, 7 animals) was 0.203 mg/kg. Further, the “inhibition of appearance of new mammary cancer, in words” value in data set [4] (0.1 mg/kg/day) is “ineffective”. Besides, the “Inhibition of appearance of new tumor” value in data set [4] (0.1 mg/kg/day p.o.) is given as -7.7%; in data set [4] (0.3 mg/kg/day p.o.), 21.0%. The LD50 at 504 h in data set [5] (setting [6]) was 177 mg/kg; in data set [5] (oral, read-out: LD50 oral) it was greater than 2000 mg/kg.

One may read the ED50 as the midpoint of the dose-response relation. As a reminder, the LD50 is the dose expected to kill half of the subjects tested.
